Like-named read-outs stand apart in the source and are kept apart here.
Assays:
[1] = target: T1, Aβ aggregates of human AD brain homogenates (Homo sapiens, UniProt P05067); assay: In vitro binding assay for Aβ aggregates of human AD brain homogenates; conditions: for Ki: Avg ± SD, n = 3, read-out: Ki of cold competing drug; for Kd: value used in Cheng-Prusoff equation
T1 construct: from tissue; host or cells: human Alzheimer's disease brain homogenate
Procedure: Competitive binding assays were performed in 12×75 mm borosilicate glass tubes. The reaction mixture contained 100 μL of AD brain homogenates (20-25 μg), 100 μL of [^18F]AV-45 or [^18F]AV-45-D3 (˜150,000 cpm), and 100 μL of competing compounds (10^−5 to 10^−10 M diluted serially in PBS containing 0.1% bovine serum albumin) in a final volume of […]. Nonspecific binding was defined in the presence of 1 μM of IMPY (6-iodo-2-(4′-dimethylamino-)phenyl-imidazo[1,2-a]pyridine) in the same assay tubes. The mixture was incubated for 60 min at room temperature, and the bound and the free radioactivity were separated by vacuum filtration through Whatman GF/B filters using a Brandel M-24R cell harvester, followed by washing with PBS buffer three times. The radioactivity on the filters was counted with a gamma counter (Wizard^2, Perkin-Elmer). Data were analyzed using the nonlinear least-square curve fitting program LIGAND to determine IC50.

[2] = target: T2, Aβ plaques in AD brain tissue homogenates (Homo sapiens, UniProt P05067); conditions: cited from earlier work; for Ki: read-out: inhibition constant Ki
T2 construct: host or cells: AD brain tissue homogenate

[3] = target: T3, vesicular monoamine transporter 2 (VMAT2) (Rattus norvegicus, UniProt Q01827); assay: In vitro binding assay for Ki determination, rat striatum homogenates; conditions: for Ki: Avg ± SD, n = 3, read-out: Ki of cold competing drug; for Kd: value used in Cheng-Prusoff equation
T3 construct: Tissue homogenates of striatum (dissected from rat brain) were prepared; from tissue; host or cells: rat brain striatum homogenate
Procedure: Tissue homogenates of striatum (dissected from rat brain) were prepared in 50 mM of HEPES, pH 7.5, and 0.3 M of sucrose. Compounds were examined for their ability to compete for the binding of ^18F-AV-133 or ^18F-AV-133-D6 (^18F-Ia) (0.15-0.2 nM) at concentrations ranging from 10^−7 to 10^−12 M. The binding assays were performed in glass tubes (12×75 mm) in a final volume of 0.25 mL. […] After incubation for 90 min at room temperature, the bound ligand was separated from the free ligand by filtration through glass fiber filters. The filters were washed three times with 4 mL of ice-cold PBS buffer, pH 7.4 and the radioactivity on the filters was counted with a gamma counter (WIZARD^2, Perkin-Elmer).

[4] = humans, cited from earlier work
[5] = cited from earlier work; for Biodistribution Blood / Biodistribution Bone / Biodistribution Brain / Biodistribution Liver / Biodistribution Muscle: normal male mice, Choi, 2009
[6] = cited from earlier work

T2 sequence (P05067 672-713 limits assumed): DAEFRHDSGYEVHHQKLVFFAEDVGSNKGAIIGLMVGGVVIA
T1 sequence (P05067 672-713 limits assumed): as above
T3 sequence (Q01827 whole entry): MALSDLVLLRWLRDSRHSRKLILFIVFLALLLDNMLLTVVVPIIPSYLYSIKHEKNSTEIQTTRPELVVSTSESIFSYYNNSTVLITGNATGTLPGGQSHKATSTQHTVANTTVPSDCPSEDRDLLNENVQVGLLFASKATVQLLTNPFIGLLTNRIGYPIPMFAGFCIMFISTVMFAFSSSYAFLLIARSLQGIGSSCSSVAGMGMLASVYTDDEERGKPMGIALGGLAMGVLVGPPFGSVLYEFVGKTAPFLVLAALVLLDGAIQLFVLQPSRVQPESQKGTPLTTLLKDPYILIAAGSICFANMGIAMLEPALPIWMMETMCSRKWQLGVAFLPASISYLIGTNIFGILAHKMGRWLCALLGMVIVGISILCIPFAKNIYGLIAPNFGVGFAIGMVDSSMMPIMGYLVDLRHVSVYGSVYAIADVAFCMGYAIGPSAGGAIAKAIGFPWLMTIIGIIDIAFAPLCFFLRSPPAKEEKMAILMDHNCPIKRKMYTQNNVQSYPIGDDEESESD

Question: Which results are given for `[2H]C([2H])([2H])Nc1ccc(/C=C/c2ccc(OCCOCCOCCF)cc2)cc1` [AV-1-D3, IIa2]?
Answer: Ki ([1]; hot ligand ^18F-AV-45-D3): 4.15 ± 0.75 nM; Ki ([1]; hot ligand ^18F-AV-45): 3.35 ± 0.88 nM

Question: With `CNc1ccc(/C=C/c2ccc(OCCOCCOCCF)nc2)cc1` [AV-45, reference compound] as the compound, how does the Ki [2] read?
Answer: 2.87 ± 0.17 nM

Question: What about the Ki ([1]; hot ligand ^18F-AV-45-D3) of the same compound?
Answer: 3.24 ± 0.76 nM

Question: And the Ki ([1]; hot ligand ^18F-AV-45)?
Answer: 4.02 ± 0.22 nM

Question: What about the Kd [1] of the same compound?
Answer: 3.51 nM

Question: With `[2H]C([2H])([2H])Nc1ccc(/C=C/c2ccc(OCCOCCOCCF)nc2)cc1` [AV-45-D3, IIa1] as the compound, how does the Ki ([1]; hot ligand ^18F-AV-45-D3) read?
Answer: 3.25 ± 0.82 nM

Question: And the Ki ([1]; hot ligand ^18F-AV-45)?
Answer: 3.44 ± 1.22 nM

Question: What about the Kd [1] of the same compound?
Answer: 3.51 nM

Question: For `COc1cc2c(cc1OCCCF)CCN1C[C@@H](CC(C)C)[C@H](O)C[C@H]21` [AV-133, reference compound], which Ki ([3]; hot ligand ^18F-AV-133-D6) is on record?
Answer: 0.26 ± 0.03 nM

Question: What about the Ki ([3]; hot ligand ^18F-AV-133) of the same compound?
Answer: 0.33 ± 0.02 nM

Question: And the Kd [3]?
Answer: 0.11 nM

Question: With `Nc1ccc(C=Cc2ccc(OCCOCCOCCF)nc2)cc1` [AV-160] as the compound, how does the “reduction of binding affinity vs nonradioactive AV-45” value [2] read?
Answer: ≥ 20 fold

Question: And the Ki [2]?
Answer: 54 ± 5 nM

Question: For `[2H]C([2H])(F)C([2H])([2H])C([2H])([2H])Oc1cc2c(cc1OC)[C@H]1C[C@@H](O)[C@H](CC(C)C)CN1CC2` [Ia (AV-133-D6), (2R,3R,11R)-9-(3-Fluoropropoxy-[1,1,2,2,3,3-D6])-3-isobutyl-10-methoxy-2,3,4,6,7,11b-hexahydro-1H-pyrido[2,1-a]isoquinolin-2-ol], which Ki ([3]; hot ligand ^18F-AV-133-D6) is on record?
Answer: 0.33 ± 0.06 nM

Question: What about the Ki ([3]; hot ligand ^18F-AV-133) of the same compound?
Answer: 0.32 ± 0.07 nM

Question: And the Kd [3]?
Answer: 0.11 nM

Question: Which “decrease of plasma radioactivity” value ([4]; within 10 min of the injection) does the source give for `CNc1ccc(/C=C/c2ccc(OCCOCCOCCF)nc2)cc1` [^18F-AV-45] here?
Answer: approximately 80%

Question: What about the “decrease of plasma radioactivity” value ([4]; within 20 min of the injection) of the same compound?
Answer: approximately 90%

Question: And the “initial brain uptake relative to metabolite ^18F-AV-160” value ([5]; mice, initial uptake)?
Answer: 1.5 fold

Question: What about the “Biodistribution Blood” value ([5]; 2 min) of the same compound?
Answer: 2.51 ± 0.31 % Dose/g

Question: What about the “Biodistribution Bone” value ([5]; 2 min) of the same compound?
Answer: 1.33 ± 0.24 % Dose/g

Question: And the “Biodistribution Brain” value ([5]; 2 min)?
Answer: 7.33 ± 1.54 % Dose/g

Question: What about the “Biodistribution Liver” value ([5]; 2 min) of the same compound?
Answer: 16.3 ± 5.38 % Dose/g

Question: And the “Biodistribution Muscle” value ([5]; 2 min)?
Answer: 3.49 ± 0.33 % Dose/g

Question: What about the “Biodistribution Blood” value ([5]; 60 min) of the same compound?
Answer: 2.37 ± 0.27 % Dose/g

Question: And the “Biodistribution Bone” value ([5]; 60 min)?
Answer: 3.66 ± 0.30 % Dose/g

Question: What about the “Biodistribution Brain” value ([5]; 60 min) of the same compound?
Answer: 1.88 ± 0.14 % Dose/g

Question: What about the “Biodistribution Liver” value ([5]; 60 min) of the same compound?
Answer: 11.1 ± 1.83 % Dose/g

Question: What about the “Biodistribution Muscle” value ([5]; 60 min) of the same compound?
Answer: 1.33 ± 0.08 % Dose/g

Question: What about the “Biodistribution Blood” value ([5]; 120 min) of the same compound?
Answer: 1.96 ± 0.23 % Dose/g

Question: What about the “Biodistribution Bone” value ([5]; 120 min) of the same compound?
Answer: 6.48 ± 0.34 % Dose/g

Question: And the “Biodistribution Brain” value ([5]; 120 min)?
Answer: 1.80 ± 0.20 % Dose/g

Question: What about the “Biodistribution Liver” value ([5]; 120 min) of the same compound?
Answer: 8.96 ± 0.28 % Dose/g

Question: And the “Biodistribution Muscle” value ([5]; 120 min)?
Answer: 1.02 ± 0.07 % Dose/g

Question: And the “Biodistribution Blood” value ([5]; 180 min)?
Answer: 1.39 ± 0.13 % Dose/g

Question: What about the “Biodistribution Bone” value ([5]; 180 min) of the same compound?
Answer: 7.83 ± 1.08 % Dose/g

Question: And the “Biodistribution Brain” value ([5]; 180 min)?
Answer: 1.48 ± 0.15 % Dose/g

Question: What about the “Biodistribution Liver” value ([5]; 180 min) of the same compound?
Answer: 5.39 ± 0.31 % Dose/g

Question: What about the “Biodistribution Muscle” value ([5]; 180 min) of the same compound?
Answer: 0.78 ± 0.09 % Dose/g

Question: And the “parent remained in the plasma” value ([6]; mice, 30 min after intravenous injection)?
Answer: 30%

Question: And the “biologic T1/2 in mouse plasma” value ([6]; mouse plasma, estimated)?
Answer: less than 30 min

Question: Which results are given for `Nc1ccc(/C=C/c2ccc(OCCOCCOCC[18F])nc2)cc1` [^18F-AV-160]?
Answer: brain uptake ([5]; mice, 2 min after injection): 4.5 % ID/g; brain uptake ([5]; mice, 60 min): 1.8 % ID/g; share of the plasma metabolites ([6]; mice, 30 min after injection): about 48%
